# Data published in US20110244047A1, “FILM-FORM PREPARATION AND METHOD FOR PRODUCING THE SAME” (NITTO DENKO CORPORATION, priority 2010, published 2011).
# Assay: Particle size of the drug particles used (electron microscope, 200 particles)
# Assay type: physicochemical
# Settings: drug particles before incorporation
# Protocol: The various drug particles used in the Examples and Comparative Examples were obtained passing the powder through a 32 μm, 50 μm or 90 μm sieve after pulverization, or obtained fine particles by a jet mill (product of Hosokawa Micron Group, spiral jet mill model 50AS) or a spray dryer (product of Büchi Labortechnik AG, mini spray dryer model B-290) after pulverization. The particle sizes of these drug particles was measured by electron microscope (product of Hitachi High-Technologies Corp., model TM-1000) and the 50 vol % average particle size was calculated from the measurement results of 200 particles. This value was used as the particle size index of the particles.
row,Structure (SMILES),50 vol % average particle size [um]
1,"COc1ccc2c(c1)c(CC(=O)O)c(C)n2C(=O)c1ccc(Cl)cc1 [Indomethacin particles, Indomethacin]",1.8
2,"CC(C(=O)O)c1cccc(C(=O)c2ccccc2)c1 (centres unmarked) [Ketoprofen particles, Ketoprofen]",1.7
3,"COc1ccc2[nH]cc(CCNC(C)=O)c2c1 [Melatonin particles A, Melatonin]",2.1
4,"COc1ccc2[nH]cc(CCNC(C)=O)c2c1 [Melatonin particles B, Melatonin]",28.4
5,"COc1ccc2[nH]cc(CCNC(C)=O)c2c1 [Melatonin particles C, Melatonin]",180.5
